Assays:
IKZF3 = IKZF3 degradation assay, H929 cell line (western blot densitometry); format: cell-based; conditions: H929 cells, 6 h
[1] = target: CRBN-DDB1 protein complex (Homo sapiens, UniProt Q96SW2); experiment: Fluorescence polarization (FP) assay, displacement of Cy5-labelled thalidomide; conditions: 25 nM CRBN-DDB1, 5 nM Cy5-labelled thalidomide, read-out: CRBN binding Ki
In short: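 CRBN-DDB1 mixed with Cy5-thalidomide tracer and test compound, then incubated 60 min at room temperature (20-25 °C) before fluorescence polarization read-out. Ki derived from tracer displacement across a range of compound concentrations.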

BRD4 = BRD4 (Homo sapiens, UniProt O60885); experiment: BRD4 degradation assay, H929 cell line (Simple Western); conditions: H929 cells, 6 h
[2] = target: BRD4-compound-CRBN/DDB1 ternary complex (Homo sapiens, UniProt O60885+Q96SW2); experiment: BRD4-compound-CRBN/DDB1 ternary complex formation, AlphaLISA homogenous assay; format: biochemical; conditions: for EC50: 100 nM His-CRBN/DDB1, 20 nM BRD4, N = 3, read-out: TF50 (compound concentration which mediate the half of maximal response observed for Ternary Complex); for Normalized AUC to dBET1: area under curve 1.63-2500 nM
Experimental: Biotinylated BRD4 and His-CRBN/DDB1 complex preparations were centrifugated to remove large aggregates (18000 rcf, 4° C., 5 min). Supernatant was collected and protein concentration was determined spectrophotometrically. The AlphaLISA bead-Protein mixtures were prepared: CRBN-acceptor bead (40 μg/ml Anti-6×His beads, 200 nM His-CRBN/DDB1 in PBS pH 7.4 supplemented with 0.1% Tween-20) and BRD4-donor bead (40 μg/ml Streptavidin beads, 40 nM BRD4 in PBS pH 7.4 supplemented with 0.1% Tween-20 and 2 mM DTT). Bead mixes were incubated in dark for 30 minutes at room temperature.
CRBN-acceptor bead mix and BRD4-donor bead mix were combined and dispensed into plate with compounds and DMSO only (10 μl of master mix per well). Final sample composition: 20 μg/ml Anti-6×His beads, 20 μg/ml Stretavidin beads, 100 nM His-CRBN/DDB1, 20 nM BRD4, 2% DMSO, 0.1% Tween-20, 1 mM DTT in PBS pH 7.4, +/− compound. Plate was sealed and covered to protect against light. Sample was mixed using Vibroturbulator. Subsequently, solutions in the plate was centrifugated and incubated in the dark for 30 minutes at 25° C. The plate seal was removed and sample luminescence was determined using Perkin Elmer Enspire plate reader. Readouts were assigned to certain compound concentration. Solutions without compound were utilized to determine background response (an average value) which subsequently was subtracted from raw data collected for compound mixtures.

IKZF1 = IKZF1 degradation assay, H929 cell line (western blot densitometry); format: cell-based; conditions: H929 cells, 6 h
Excerpt: After primary and secondary Ab staining, the membranes were washed and signals developed. The densitometry analysis was implemented to obtain the numeric values used later in the protein level evaluation process.

[3] = target: T1, IKZF1-compound-CRBN/DDB1 ternary complex (Homo sapiens, UniProt Q96SW2); experiment: IKZF1-compound-CRBN/DDB1 ternary complex formation, AlphaLISA homogenous assay; format: biochemical; conditions: AlphaLISA, 0.1, 1 and 10 μM, normalized to Lenalidomide response
T1 construct: Strep-tagged Ikaros (IKZF1 ZF2)
Experimental: Strep-tagged Ikaros (IKZF1 ZF2) and His-CRBN/DDB1 complex preparations were centrifugated to remove large aggregates (18000 rcf, 4° C., 5 min). Supernatant was collected and protein concentration was determined spectrophotometrically. The AlphaLISA bead-Protein mixtures were prepared: CRBN-acceptor bead (40 μg/ml Anti-6×His beads, 200 nM His-CRBN/DDB1 in PBS pH 7.4 supplemented with 0.1% Tween-20) Ikaros-donor bead mix (40 μg/ml Strep-Tactin beads, 800 nM IKZF1 in PBS pH 7.4 supplemented with 0.1% Tween-20 and 2 mM DTT). Bead mixes were incubated in dark for 30 minutes at room temperature. Tested compounds were dispensed into small volume AlphaPlate (Perkin Elmer) using Echo 555 liquid handler. CRBN-acceptor bead mix and Ikaros-donor bead mix were combined and dispensed into plate with compounds and DMSO only (10 μl of master mix per well). Final sample composition: 20 μg/ml Anti-6×His beads, 20 μg/ml Strep-Tactin beads, 100 nM His-CRBN/DDB1, 400 nM IKZF1, 2% DMSO, 0.1% Tween-20, 1 mM DTT in PBS pH 7.4, +/− compound. Plate was sealed and covered to protect against light. Sample was mixed using Vibroturbulator. […] The plate seal was removed and sample luminescence was determined using Perkin Elmer Enspire plate reader. Readouts were assigned to certain compound concentration. […] The average and standard deviation (SD) were calculated for each compound concentration point. […]

Ki [1] | BRD4 degradation (in words) (BRD4) | EC50 [2] | Normalized AUC to dBET1 [2] | SMILES | % of IKZF3 protein reduction based on densitometry values, IKZF3 Band I (IKZF3; 0.1 μM) | % of IKZF3 protein reduction based on densitometry values, IKZF3 Band II (IKZF3; 0.1 μM) | % of IKZF3 protein reduction based on densitometry values, IKZF3 Band I (IKZF3; 1 μM) | % of IKZF3 protein reduction based on densitometry values, IKZF3 Band II (IKZF3; 1 μM) | % of IKZF3 protein reduction based on densitometry values, IKZF3 Band I (IKZF3; 10 μM) | % of IKZF3 protein reduction based on densitometry values, IKZF3 Band II (IKZF3; 10 μM) | % of IKZF1 α protein reduction based on densitometry values (IKZF1; 0.1 μM) | % of IKZF1 α protein reduction based on densitometry values (IKZF1; 1 μM) | % of IKZF1 α protein reduction based on densitometry values (IKZF1; 10 μM) | IKZF1-compound-CRBN/DDB1 complex formation (in words) [3]
1000 to 10000 nM | can degrade BRD4 | 70.5 nM | 1.45 | Cc1sc2c(c1C)C(c1ccc(Cl)cc1)=N[C@@H](CC(=O)NCCCCCCCCNC(=O)CCc1nc3c(C(=O)NC4CCC(=O)NC4=O)cccc3[nH]1)c1nnc(C)n1-2 (stereo partly drawn) [Compound 64, 2-(3-((8-(2-((S)-4-(4-chlorophenyl)-2,3,9-trimethyl-6H-thieno[3,2-f][1,2,4]triazolo[4,3-a][1,4]diazepin-6-yl)acetamido)octyl)amino)-3-oxopropyl)-N-(2,6-dioxopiperidin-3-yl)-1H-benzo[d]imidazole-7-carboxamide] | ≤25% (≤25% for 0-25% of IKZF3 protein reduction) | ≤25% (≤25% for 0-25% of IKZF3 protein reduction) | >25% (>25% for 26-74% of IKZF3 protein reduction) | ≤25% (≤25% for 0-25% of IKZF3 protein reduction) | ≤25% (≤25% for 0-25% of IKZF3 protein reduction) | ≤25% (≤25% for 0-25% of IKZF3 protein reduction) | ≤25% (≤25% for 0-25% of IKZF1 protein reduction) | ≤25% (≤25% for 0-25% of IKZF1 protein reduction) | ≤25% (≤25% for 0-25% of IKZF1 protein reduction) | 
< 1000 nM | can degrade BRD4 | 42.1 nM | 1.53 | Cc1nc2c(C(=O)NC3CCC(=O)NC3=O)cc(OCC(=O)NCCCCCCCCNC(=O)C[C@@H]3N=C(c4ccc(Cl)cc4)c4c(sc(C)c4C)-n4c(C)nnc43)cc2[nH]1 (stereo partly drawn) [Compound 66, 5-(2-((8-(2-((S)-4-(4-chlorophenyl)-2,3,9-trimethyl-6H-thieno[3,2-f][1,2,4]triazolo[4,3-a][1,4]diazepin-6-yl)acetamido)octyl)amino)-2-oxoethoxy)-N-(2,6-dioxopiperidin-3-yl)-2-methyl-1H-benzo[d]imidazole-7-carboxamide] | ≤25% (≤25% for 0-25% of IKZF3 protein reduction) | ≤25% (≤25% for 0-25% of IKZF3 protein reduction) | ≤25% (≤25% for 0-25% of IKZF3 protein reduction) | ≤25% (≤25% for 0-25% of IKZF3 protein reduction) | ≤25% (≤25% for 0-25% of IKZF3 protein reduction) | ≤25% (≤25% for 0-25% of IKZF3 protein reduction) | ≤25% (≤25% for 0-25% of IKZF1 protein reduction) | ≤25% (≤25% for 0-25% of IKZF1 protein reduction) | ≤25% (≤25% for 0-25% of IKZF1 protein reduction) | 
< 1000 nM |  | 38.8 nM | 1.22 | Cc1sc2c(c1C)C(c1ccc(Cl)cc1)=N[C@@H](CC(=O)NCCCCCCCCNC(=O)Cn1c(C)nc3c(C(=O)NC4CCC(=O)NC4=O)cccc31)c1nnc(C)n1-2 (stereo partly drawn) [Compound 65, 1-(2-((8-(2-((S)-4-(4-chlorophenyl)-2,3,9-trimethyl-6H-thieno[3,2-f][1,2,4]triazolo[4,3-a][1,4]diazepin-6-yl)acetamido)octyl)amino)-2-oxoethyl)-N-(2,6-dioxopiperidin-3-yl)-2-methyl-1H-benzo[d]imidazole-4-carboxamide] |  |  |  |  |  |  |  |  |  | do not promote IKZF1-compound-CRBN/DDB1 complex formation
